Measured values as given in patent US7928107B2, “Quinazolines useful as modulators of ion channels” (Vertex Pharmaceuticals Incorporated, priority 2004, dated 2011).

Biological target: NaV 1.8 channel (Homo sapiens, UniProt Q9Y5Y9)
Experiment: Activity against NaV 1.8 channel (optical membrane potential assay)
Format: cell-based
Procedure: Compounds of the invention are useful as antagonists of voltage-gated sodium ion channels. Antagonist properties of test compounds were assessed as follows. Cells expressing the NaV of interest were placed into microtiter plates. After an incubation period, the cells were stained with fluorescent dyes sensitive to the transmembrane potential. The test compounds were added to the microtiter plate. The cells were stimulated with either a chemical or electrical means to evoke a NaV dependent membrane potential change from unblocked channels, which was detected and measured with trans-membrane potential-sensitive dyes. Antagonists were detected as a decreased membrane potential response to the stimulus. The optical membrane potential assay utilized voltage-sensitive FRET sensors described by Gonzalez and Tsien (See, Gonzalez, J. E. and R. Y. Tsien (1995) “Voltage sensing by fluorescence resonance energy transfer in single cells” Biophys J 69(4): 1272-80, and Gonzalez, J. E. and R. Y. Tsien (1997) “Improved indicators of cell membrane potential that use fluorescence resonance energy transfer” Chem Biol 4(4): 269-77) in combination with instrumentation for measuring fluorescence changes such as the Voltage/Ion Probe Reader (VIPR®) (See, Gonzalez, J. E., K. Oades, et al. (1999) “Cell-based assays and instrumentation for screening ion-channel targets” Drug Discov Today 4(9): 431-439).
24 hours before the assay on VIPR, CHO cells endogenously expressing a NaV1.2 type voltage-gated NaV are seeded in 96-well poly-lysine coated plates at 60,000 cells per well. Other subtypes are performed in an analogous mode in a cell line expressing the NaV of interest. • 1) On the day of the assay, medium is aspirated and cells are washed twice with 225 μL of Bath Solution #2 (BS#2). • 2) A 15 uM CC2-DMPE solution is prepared by mixing 5 mM coumarin stock solution with 10% Pluronic 127 1:1 and then dissolving the mix in the appropriate volume of BS#2. • 3) After bath solution is removed from the 96-well plates, the cells are loaded with 80 μL of the CC2-DMPE solution. Plates are incubated in the dark for 30 minutes at room temperature. • 4) While the cells are being stained with coumarin, a […] solution in BS#2 is prepared. In addition to DiSBAC2(3), this solution should contain 0.75 mM ABSCl and […] (prepared from 10 mM EtOH stock, Sigma #V-5754). • 5) After 30 minutes, CC2-DMPE is removed and the cells are washed twice with 225 μL of BS#2. As before, the residual volume should be 40 μL. • 6) Upon removing the bath, the cells are loaded with 80 μL of the DiSBAC2(3) solution, after which test compound, dissolved in DMSO, is added to achieve the desired test concentration to each well from the drug addition plate and mixed thoroughly. The volume in the well should be roughly 121 μL. The cells are then incubated for 20-30 minutes. • 7) Once the incubation is complete, the cells are ready to be assayed on VIPR® with a sodium add back protocol. 120 μL of Bath solution #1 is added to stimulate the NaV dependent depolarization. […] was used as an antagonist positive control for block of the NaV channel.
Data are analyzed and reported as normalized ratios of background-subtracted emission intensities measured in the 460 nm and 580 nm channels. Background intensities are then subtracted from each assay channel. Background intensities are obtained by measuring the emission intensities during the same time periods from identically treated assay wells in which there are no cells. The response as a function of time is then reported as the ratios obtained using the following formula: […]
The data is further reduced by calculating the initial (Ri) and final (Rf) ratios. These are the average ratio values during part or all of the pre-stimulation period, and during sample points during the stimulation period. The response to the stimulus R=Rf/Ri is then calculated. […]

NaV 1.8 channel, sequence (Q9Y5Y9 whole entry): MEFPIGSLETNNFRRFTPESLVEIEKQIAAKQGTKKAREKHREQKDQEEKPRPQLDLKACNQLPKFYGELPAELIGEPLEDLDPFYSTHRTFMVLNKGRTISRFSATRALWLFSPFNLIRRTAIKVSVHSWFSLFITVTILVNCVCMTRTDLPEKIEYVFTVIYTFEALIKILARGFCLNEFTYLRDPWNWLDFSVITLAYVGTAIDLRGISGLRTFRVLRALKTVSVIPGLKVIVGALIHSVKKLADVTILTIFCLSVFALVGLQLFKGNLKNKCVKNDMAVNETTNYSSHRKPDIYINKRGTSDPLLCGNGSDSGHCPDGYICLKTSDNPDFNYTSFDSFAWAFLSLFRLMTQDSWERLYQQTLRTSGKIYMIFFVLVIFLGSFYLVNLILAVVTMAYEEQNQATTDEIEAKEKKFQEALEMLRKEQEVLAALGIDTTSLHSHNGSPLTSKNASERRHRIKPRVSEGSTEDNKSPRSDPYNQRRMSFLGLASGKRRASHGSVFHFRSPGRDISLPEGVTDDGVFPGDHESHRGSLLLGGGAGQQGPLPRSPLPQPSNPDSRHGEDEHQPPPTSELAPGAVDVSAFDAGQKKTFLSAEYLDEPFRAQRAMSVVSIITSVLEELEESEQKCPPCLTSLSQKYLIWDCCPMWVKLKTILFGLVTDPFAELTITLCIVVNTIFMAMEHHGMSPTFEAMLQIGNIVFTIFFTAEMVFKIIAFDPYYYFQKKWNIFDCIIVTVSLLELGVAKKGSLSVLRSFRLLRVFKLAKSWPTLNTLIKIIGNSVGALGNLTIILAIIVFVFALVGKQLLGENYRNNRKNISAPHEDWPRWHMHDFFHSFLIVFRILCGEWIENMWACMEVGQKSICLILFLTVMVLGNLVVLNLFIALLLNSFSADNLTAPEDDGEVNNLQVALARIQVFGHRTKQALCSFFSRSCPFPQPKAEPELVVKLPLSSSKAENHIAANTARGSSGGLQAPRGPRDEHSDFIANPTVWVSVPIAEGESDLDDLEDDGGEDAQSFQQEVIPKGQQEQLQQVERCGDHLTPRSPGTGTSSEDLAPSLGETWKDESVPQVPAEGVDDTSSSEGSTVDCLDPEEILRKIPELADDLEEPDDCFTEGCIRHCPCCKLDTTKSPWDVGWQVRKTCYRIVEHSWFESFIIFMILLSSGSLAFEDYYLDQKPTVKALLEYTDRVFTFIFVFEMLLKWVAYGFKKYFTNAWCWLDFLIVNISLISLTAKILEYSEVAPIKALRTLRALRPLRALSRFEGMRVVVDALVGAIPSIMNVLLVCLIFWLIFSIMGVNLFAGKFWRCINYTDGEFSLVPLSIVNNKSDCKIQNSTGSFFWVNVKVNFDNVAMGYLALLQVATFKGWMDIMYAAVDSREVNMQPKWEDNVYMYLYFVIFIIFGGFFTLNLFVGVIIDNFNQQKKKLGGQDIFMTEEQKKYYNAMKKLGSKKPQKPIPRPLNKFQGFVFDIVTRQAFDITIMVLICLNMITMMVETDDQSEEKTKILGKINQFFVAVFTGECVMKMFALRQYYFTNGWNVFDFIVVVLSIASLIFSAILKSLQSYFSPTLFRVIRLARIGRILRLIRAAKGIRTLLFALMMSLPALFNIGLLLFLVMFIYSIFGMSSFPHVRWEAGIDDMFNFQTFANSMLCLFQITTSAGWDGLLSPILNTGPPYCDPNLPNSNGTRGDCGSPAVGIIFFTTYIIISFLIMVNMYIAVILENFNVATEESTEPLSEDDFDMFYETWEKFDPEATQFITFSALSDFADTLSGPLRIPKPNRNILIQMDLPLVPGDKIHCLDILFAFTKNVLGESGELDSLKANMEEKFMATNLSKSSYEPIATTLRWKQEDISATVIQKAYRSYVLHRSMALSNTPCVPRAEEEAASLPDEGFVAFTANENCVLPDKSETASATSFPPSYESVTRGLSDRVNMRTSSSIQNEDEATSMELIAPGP

Row | IC50 | Compound
1 | < 2 µM | Cc1ccc2c(N3CCN(C(=O)[C@H](O)CC(C)(C)C)CC3)nc(-c3ccccc3O)nc2c1 [Example 101, (R)-2-Hydroxy-1-(4-(2-(2-hydroxyphenyl)-7-methylquinazolin-4-yl)piperazin-1-yl)-4,4-dimethylpentan-1-one]
2 | > 10 µM | Cc1ccc2c(N3CC[C@@H](NC(=O)c4cccnc4)C3)nc(-c3c(O)cccc3F)nc2c1 [Example 352, N—((R)-1-(2-(2-Fluoro-6-hydroxyphenyl)-7-methylquinazolin-4-yl)pyrrolidin-3-yl)nicotinamide]
3 | > 10 µM | Cc1ccc2c(N3CCN(C(=O)[C@H](O)CC(C)(C)F)CC3)nc(-c3ccccc3O)nc2c1 [Example 125, (R)-4-Fluoro-2-hydroxy-1-{4-[2-(2-hydroxy-phenyl)-7-methyl-quinazolin-4-yl]-piperazin-1-yl}-4-methyl-pentan-1-one]
4 | > 10 µM | Cc1ccc2c(N3CC[C@H](CNC(=O)OCc4ccccc4)C3)nc(-c3ccccc3O)nc2c1 [Example 362, Benzyl ((R)-1-(2-(2-hydroxyphenyl)-7-methylquinazolin-4-yl)pyrrolidin-3-yl)methylcarbamate]
5 | > 10 µM | CCCC(O)C(=O)NC1CCN(c2nc(-c3ccccc3O)nc3ccccc23)CC1 (stereo not shown) [Example 241, 2-Hydroxy-N-(1-(2-(2-hydroxyphenyl)quinazolin-4-yl)piperidin-4-yl)pentanamide]
6 | > 10 µM | O=C(OCC1CCCCO1)N1CCN(c2nc(-c3ccccc3O)nc3ccc(F)cc23)CC1 (stereo not shown) [Example 160, (Tetrahydro-2H-pyran-2-yl)methyl 4-(6-fluoro-2-(2-hydroxyphenyl)quinazolin-4-yl)piperazine-1-carboxylate]
7 | 2 to 10 µM | Cc1ccc2c(N3CCN(C(=O)[C@@H](O)CC(C)C)CC3)nc(-c3ccccc3O)nc2c1 [Example 144, (S)-2-Hydroxy-1-(4-(2-(2-hydroxyphenyl)-7-methylquinazolin-4-yl)piperazin-1-yl)-4-methylpentan-1-one]
8 | > 10 µM | Cc1ccc2c(N3CC[C@@H](NC(=O)CCN4CCCCC4)C3)nc(-c3ccccc3O)nc2c1 [Example 324]
9 | 2 to 10 µM | CC(C)(C)[C@H](O)C(=O)N1CCN(c2nc(-c3ccccc3O)nc3ccc(F)cc23)CC1 [Example 139, (S)-1-(4-(6-Fluoro-2-(2-hydroxyphenyl)quinazolin-4-yl)piperazin-1-yl)-2-hydroxy-3,3-dimethylbutan-1-one]
10 | > 10 µM | Cc1ccc2c(N3CCN(C(=O)[C@H](O)CC(C)(C)O)CC3)nc(-c3ccccc3O)nc2c1 [Example 164, (R)-2,4-Dihydroxy-1-(4-(2-(2-hydroxyphenyl)-7-methylquinazolin-4-yl)piperazin-1-yl)-4-methylpentan-1-one]
11 | 2 to 10 µM | CCC(C)(O)C(=O)NC1CCN(c2nc(-c3ccccc3O)nc3cc(C)ccc23)CC1 (stereo not shown) [Example 248, 2-Hydroxy-N-(1-(2-(2-hydroxyphenyl)-7-methylquinazolin-4-yl)piperidin-4-yl)-2-methylbutanamide]
12 | > 10 µM | Cc1ccc2c(N3CCN(C(=O)[C@H](O)CC(C)C)CC3CO)nc(-c3ccccc3O)nc2c1 (stereo partly drawn) [Example 172, (R)-2-Hydroxy-1-{3-hydroxymethyl-4-[2-(2-hydroxy-phenyl)-7-methyl-quinazolin-4-yl]-piperazin-1-yl}-4-methyl-pentan-1-one]
13 | 2 to 10 µM | COCCOC(=O)NC[C@@H]1CCN(c2nc(-c3ccccc3O)nc3ccc(F)cc23)C1 [Example 377, 2-Methoxyethyl ((S)-1-(6-fluoro-2-(2-hydroxyphenyl)quinazolin-4-yl)pyrrolidin-3-yl)methylcarbamate]
14 | 2 to 10 µM | Cc1ccc2c(N3CC[C@@H](NC(=O)OCc4ccncc4)C3)nc(-c3ccccc3O)nc2c1 [Example 320, (Pyridin-4-yl)methyl (R)-1-(2-(2-hydroxyphenyl)-7-methylquinazolin-4-yl)pyrrolidin-3-ylcarbamate]
15 | 2 to 10 µM | Cc1ccc2c(N3CCN(C(=O)C(O)C(C)C)CC3)nc(-c3ccccc3O)nc2c1 (stereo not shown) [Example 113, 2-Hydroxy-1-(4-(2-(2-hydroxyphenyl)-7-methylquinazolin-4-yl)piperazin-1-yl)-3-methylbutan-1-one]
16 | > 10 µM | Cc1ccc2c(N3CCC(NC(=O)CCc4ccccn4)CC3)nc(-c3ccccc3O)nc2c1 [Example 223, N-(1-(2-(2-Hydroxyphenyl)-7-methylquinazolin-4-yl)piperidin-4-yl)-3-(pyridin-2-yl)propanamide]
17 | < 2 µM | CC(C)(C)C[C@@H](O)C(=O)N1CCN(c2nc(-c3ccccc3O)nc3ccccc23)CC1 [Example 191]
18 | 2 to 10 µM | Cc1ccc2c(N3CCC(NC(=O)O[C@@H]4CCOC4)CC3)nc(-c3ccccc3O)nc2c1 [Example 272]
19 | > 10 µM | Cc1ccc2c(N3CC[C@H](CNC(=O)[C@H]4CCCO4)C3)nc(-c3ccccc3O)nc2c1 [Example 308, (2R)-Tetrahydro-N—(((R)-1-(2-(2-hydroxyphenyl)-7-methylquinazolin-4-yl)pyrrolidin-3-yl)methyl)furan-2-carboxamide]
20 | < 2 µM | Cc1ccc2c(N3CCC[C@@H](CNC(=O)OCC(C)C)C3)nc(-c3c(O)cccc3F)nc2c1 [Example 260, Isobutyl ((S)-1-(2-(2-fluoro-6-hydroxyphenyl)-7-methylquinazolin-4-yl)piperidin-3-yl)methylcarbamate]
21 | > 10 µM | CCCOC(=O)NC[C@@H]1CCN(c2nc(-c3ccccc3O)nc3ccc(F)cc23)C1 [Example 374, Propyl ((S)-1-(6-fluoro-2-(2-hydroxyphenyl)quinazolin-4-yl)pyrrolidin-3-yl)methylcarbamate]
22 | 2 to 10 µM | Cc1ccc2c(N3CCC(NC(=O)[C@@H]4CCCO4)CC3)nc(-c3ccccc3O)nc2c1 [Example 277]
23 | < 2 µM | Cc1ccc2c(N3CCCC(CNC(=O)OCC(C)C)C3)nc(-c3ccccc3O)nc2c1 (stereo not shown) [Example 250, Isobutyl (1-(2-(2-hydroxyphenyl)-7-methylquinazolin-4-yl)piperidin-3-yl)methylcarbamate]
24 | 2 to 10 µM | Cc1ccc2c(N3CC[C@@H](NC(=O)OCC4CCCCO4)C3)nc(-c3ccccc3O)nc2c1 (stereo partly drawn) [Example 314, (Tetrahydro-2H-pyran-2-yl)methyl (R)-1-(2-(2-hydroxyphenyl)-7-methylquinazolin-4-yl)pyrrolidin-3-ylcarbamate]
25 | > 10 µM | CC(C)COC(=O)NC[C@@H]1CCN(c2nc(-c3ccccc3O)nc3ccc(F)cc23)C1 [Example 376, Isobutyl ((S)-1-(6-fluoro-2-(2-hydroxyphenyl)quinazolin-4-yl)pyrrolidin-3-yl)methylcarbamate]
26 | 2 to 10 µM | Cc1ccc2c(N3CCC(NC(=O)[C@H]4CCCO4)CC3)nc(-c3c(C)cccc3O)nc2c1 [Example 218, (2R)-Tetrahydro-N-(1-(2-(2-hydroxy-6-methylphenyl)-7-methylquinazolin-4-yl)piperidin-4-yl)furan-2-carboxamide]
27 | > 10 µM | O=C(NC1CCN(c2nc(-c3ccccc3O)nc3ccc(F)cc23)CC1)[C@H]1CCCO1 [Example 224, (2R)—N-(1-(6-Fluoro-2-(2-hydroxyphenyl)quinazolin-4-yl)piperidin-4-yl)-tetrahydrofuran-2-carboxamide]
28 | 2 to 10 µM | Cc1ccc2c(N3CC[C@@H](CNC(=O)OCc4ccccc4)C3)nc(-c3ccccc3O)nc2c1 [Example 363, Benzyl ((S)-1-(2-(2-hydroxyphenyl)-7-methylquinazolin-4-yl)pyrrolidin-3-yl)methylcarbamate]
